Tests used:
U937 cells = test: Escape velocity, effect of camptothecin on U937 cells; assay type: cell-based; conditions: camptothecin-treated U937 cells
Procedure: The objective of this experiment is to test the effects of camptothecin on the escape velocities of U937 cells. Camptothecin inhibits DNA topoisomerase I and induces apoptosis. A control and three concentrations of camptothecin were tested: […]. After adding the camptothecin, the flasks are incubated at 37° C. 5% CO2.
At the timepoints of 4 hours and 6 hours, 200 μl of cells are spun for 5 minutes at 5000 rpm. The cells are then resuspended in […] PBS/1% BSA and […] trypan blue.
Optophoretic techniques have been investigated for their potential to detect the early onset of apoptosis in mammalian cells. U.S. patent application Ser. No. 10,240,611, for example, discloses multiple experiments in which U937 cells were treated with camptothecin and subsequently monitored Optophoretically using measured escape velocities. In one experiment, the escape velocity of the camptothecin-treated cells were measured at 4 and 6 hours after treatment. Noticeable changes in escape velocity were seen as early as 4 hours after treatment (see, e.g., FIG. 34). In that experiment, U937 cells were treated with 4 μg/ml of camptothecin and resuspended in PBS/1% BSA. Escape velocity measurements were taken after 4 and 6 hours. Table 18, reproduced below, includes the results of the escape velocity measurements for the test cells as well as the controls.

CEM/C2 = CEM/C2 cell line obtained from ATCC; cited from earlier work

CC[C@@]1(O)C(=O)OCc2c1cc1n(c2=O)Cc2cc3ccccc3nc2-1 [Camptothecin]
time after treatment at which noticeable changes in escape velocity were seen (U937 cells): ≤ 4 h | less sensitive than parental cell line CCRF-CEM (CEM/C2): 970 fold

Source: patent US20040121474A1, “Detection and evaluation of chemically-mediated and ligand-mediated t-cell activation using optophoretic analysis” (Genoptix, Inc, priority 2002, published 2004)
